For 2 compounds, IC50 results are on record in patent US8552033B2, “Inhibitors of CXCR2” (SANOFI, priority 2006, dated 2013).

This assay deals with human CXCR2 (Homo sapiens (Human), UniProt P25025). Description: CXCR2 inhibition: calcium fluorescence assay (FLIPR). Particulars: chemokine IL-8; CHO-K1 cells stably transfected with human CXCR2 and Gα16; Fluo-4 calcium response. Type of assay: cell-based. An excerpt: Determination of CXCR2 Inhibition: Calcium Fluorescence Assay (FLIPR)
The assay is based on the detection of intracellular calcium changes detected by the selective, calcium-chelating dye, Fluo-4 (Molecular Probes). A large fluorescence intensity increase is observed upon calcium association with Fluo-4. The dye is delivered to the cell interior using an acetoxymethylester form of Fluo-4, where the intracellular esterase activity results in the charged species being released and trapped within the cytoplasm of the cell. […] By co-expressing the CXCR2 receptor and the promiscuous Gα16 protein, activation of this chemokine receptor is directed into this phospholipase C cascade resulting in intracellular calcium mobilization.
The CHO-K1 cells stably transfected with human CXCR2 and the promiscuous Gα16 protein were maintained in a log phase of growth at 37° C. and 5% CO2 in the following media: Iscove's, 10% FBS, 1× Penicillin-Streptomycin, 400 μg/mL G418 and 350 μg/mL Zeocin. Approximately 24-48 hours prior to the assay, 20,000-30,000 cells/well were plated onto a 96-well black/clear bottomed assay plate (Becton Dickinson) with a well volume of 180 μl. […] The IC50 value of a compound was determined by calculation of % inhibition of total calcium response to the chemokine.

Sequence of human CXCR2 (P25025 whole entry): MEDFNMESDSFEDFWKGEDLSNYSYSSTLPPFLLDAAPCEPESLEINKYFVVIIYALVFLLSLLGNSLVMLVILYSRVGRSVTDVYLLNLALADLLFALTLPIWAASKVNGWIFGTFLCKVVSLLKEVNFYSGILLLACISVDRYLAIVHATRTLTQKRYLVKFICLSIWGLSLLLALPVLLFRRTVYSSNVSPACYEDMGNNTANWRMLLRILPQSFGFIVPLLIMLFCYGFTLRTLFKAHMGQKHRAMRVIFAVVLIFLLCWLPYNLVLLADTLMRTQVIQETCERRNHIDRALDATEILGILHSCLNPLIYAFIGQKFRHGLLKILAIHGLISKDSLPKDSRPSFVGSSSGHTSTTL

As usually defined, the IC50 is the midpoint of a concentration-inhibition curve. For the compound `CCC(NC(=O)c1ccc2ccccc2c1OCc1ccc(C(F)(F)F)cc1)(C(=O)O)c1ccccc1` (centres unmarked) [Example 10, 2-Phenyl-2-{[1-(4-trifluoromethyl-benzyloxy)-naphthalene-2-carbonyl]-amino}-butyric acid], the IC50 worked out at 2.2 µM.
With `O=C(NC1(C(=O)O)CCOCC1)c1cc(F)c2ccccc2c1OCc1ccc(SC(F)(F)F)cc1` [Example 12, 4-{[4-Fluoro-1-(4-trifluoromethylsulfanyl-benzyloxy)-naphthalene-2-carbonyl]-amino}-tetrahydro-pyran-4-carboxylic acid] the figure was 6 µM.
